Laboratory results reported in the NIST ThermoML archive (doi:10.1021/je0601098).

How the values were obtained:
[1] = 298.15 K, 101 kPa, Liquid; for speed of sound: Linear variable-path acoustic interferometer
[2] = mn = molality of the nth substance listed, in mol/kg; details: 298.15 K, 101 kPa, Liquid; for speed of sound: Linear variable-path acoustic interferometer

CCO [ethanol]
[1]
Details | mass density [kg/m3] | speed of sound [m/s]
– | 785.207 | 1142.1

CN(C)C=O [dimethylformamide]
[1]
Details | mass density [kg/m3] | speed of sound [m/s]
– | 944.076 | 1460.2

CO [methanol]
[1]
Details | mass density [kg/m3] | speed of sound [m/s]
– | 786.66 | 1103.8

CC#N [acetonitrile] + O
[2]
Details | mass density [kg/m3] | speed of sound [m/s]
m2 = 0 | 776.389 | 1281.3
m2 = 0.1197 | 776.819 | 1281.5
m2 = 0.1729 | 777.019 | 1282
m2 = 0.2244 | 777.174 | 1282.2
m2 = 0.2674 | 777.435 | 1282.4
m2 = 0.3192 | 777.518 | 1282.2
m2 = 0.4188 | 777.923 | 1282.6
m2 = 0.5198 | 778.218 | 1283
m2 = 0.621 | 778.584 | 1284
m2 = 0.7217 | 778.921 | 1284.3
m2 = 0.8212 | 779.276 | 1284.7
m2 = 0.9205 | 779.631 | 1285.5
m2 = 1.02 | 779.949 | 1286.5

CN(C)C=O [dimethylformamide] + O
[2]
Details | mass density [kg/m3] | speed of sound [m/s]
m2 = 0 | 944.076 | 1460.2
m2 = 0.08457 | 944.384 | 1461.1
m2 = 0.1304 | 944.54 | 1461.8
m2 = 0.1738 | 944.701 | 1462.4
m2 = 0.2315 | 944.826 | 1463.9
m2 = 0.2762 | 945.027 | 1464.1
m2 = 0.3215 | 945.143 | 1464.2
m2 = 0.4146 | 945.584 | 1465.5
m2 = 0.5189 | 945.835 | 1467.4
m2 = 0.6115 | 946.263 | 1468.1
m2 = 0.7123 | 946.49 | 1469.4
m2 = 0.81 | 946.853 | 1470.7
m2 = 0.9044 | 947.103 | 1472.3
m2 = 1.001 | 947.417 | 1473.3

CC#N [acetonitrile]
[1]
Details | mass density [kg/m3] | speed of sound [m/s]
– | 776.389 | 1281.3

C1COCCO1 [1,4-dioxane] + O
[2]
Details | mass density [kg/m3] | speed of sound [m/s]
m2 = 0 | 1028.34 | 1346.3
m2 = 0.07165 | 1028.35 | 1347.1
m2 = 0.1214 | 1028.36 | 1347.8
m2 = 0.1625 | 1028.37 | 1348.4
m2 = 0.2272 | 1028.39 | 1349.2
m2 = 0.3262 | 1028.42 | 1350
m2 = 0.4214 | 1028.46 | 1350.9
m2 = 0.6512 | 1028.57 | 1353
m2 = 0.8375 | 1028.67 | 1354.8
m2 = 1.022 | 1028.78 | 1356.5

C1CCOC1 [tetrahydrofuran]
[1]
Details | mass density [kg/m3] | speed of sound [m/s]
– | 882.056 | 1280.2

CCCO [propan-1-ol] + O
[2]
Details | mass density [kg/m3] | speed of sound [m/s]
m2 = 0 | 799.683 | 1207
m2 = 0.1627 | 800.472 | 1209
m2 = 0.217 | 800.732 | 1209.9
m2 = 0.2635 | 800.961 | 1210.1
m2 = 0.3129 | 801.185 | 1211.5
m2 = 0.4209 | 801.664 | 1213
m2 = 0.5137 | 802.083 | 1213.4
m2 = 0.6196 | 802.528 | 1214.7
m2 = 0.7183 | 802.982 | 1215.8
m2 = 0.8205 | 803.412 | 1217.2
m2 = 0.9191 | 803.833 | 1218.1
m2 = 1.005 | 804.252 | 1219.3
